Data taken from patent US8206593B2, “Microfluidic chemical reaction circuits” (Fluidigm Corporation, priority 2004, dated 2012).

Test system: tumor-bearing mouse (M-MSV/M-MuLV rhabdomyosarcoma)
Test: microPET/microCT imaging of a tumor-bearing mouse injected with [18F]FDG
Format: in vivo
Details: 272 microCi via tail vein; 1-h uptake and non-specific clearance; imaged 15 minutes; FDG produced in a microfluidic chip
From the text: Mouse Model. The tumor model used was a strongly immunogenic, non-metastasizing retrovirally-induced rhabdomyosarcoma (M-MSV/M-MuLV) (Fletcher et al., 2002, Tetrahedron 58:4735). MSV is a replication-defective, acutely transforming retrovirus carried with helper activity provided by M-MuLV, which encodes the gag, pol, and env components that are necessary for cell infection and replication (Worz et al., 2001, Chemical Engineering Science 56:1029). Rhabdomyosarcomas develop at the intramuscular inoculation site after a short latency period (7-10 days) and regress over a period of 4-5 wk following the induction of a strong immune reaction in immunocompetent adult mice. These lesions were characterized by a mixture of virus-infected myocytes and a large infiltrate of lymphocytes, granulocytes, and macrophages. Both cellular and humoral immune responses induced are dependent on presentation by H-2 D^b alleles (Watts et al., 2003, Current Opinion in Chemical Biology 7:380). Rejection was mediated by CD8+ cytolytic T cells, which recognize peptides from the gag and env proteins of M-MuLV, and requires help from CD4+ T cells (Kobayashi et al., 2004, Science 304:1305; Chan et al., 2003, Nano Letters 3:199; Kawaguchi et al., 2005, Angewandte Chemie-International Edition 44:2413)
Mouse imaging. The tumor bearing mouse was injected with 272 microCi of FDG via tail vein. […]

Substance: 2-deoxy-2-[^18F]fluoro-D-glucose [[^18F]FDG]
- Organs visible in microPET/microCT image: bladder, kidneys, heart, tumor and two lymph nodes
